Assays:
acute DSS-induced IBD = experiment: Acute prophylactic model of DSS-induced IBD; assay type: in vivo, male C57Bl/6 mice
From the text: Acute and chronic models of dextran sodium sulfate (DSS)-induced IBD in mice were used to explore efficacy of GSNORi against this disease. Acute and chronic DSS-induced IBD are widely used and well characterized models that induce pathological changes in the colon similar to those observed in the human disease. In these models and in human disease, epithelial cells within the crypts of the colon are disrupted, leading to dysfunction of the epithelial barrier and the ensuing tissue inflammation, edema, and ulceration. GSNORi therapy may benefit IBD by restoring s-nitrosoglutathione (GSNO) levels, and thus prevent or reverse the epithelial barrier dysfunction. Experimental IBD was induced by administration of DSS in the drinking water of male C57Bl/6 mice (N=8 to 10 mice per group) for 6 consecutive days. GSNORi was dosed orally at doses of 0.1 to 10 mg/kg/day for 10 days starting two days prior to and continuing two days post DSS exposure. Two days post DSS exposure, the effect of GSNORi was assessed in a blinded fashion via endoscopy and histopathology using a five point scale ranging from a score=0 (normal tissue) through a score=4 (ulcerative tissue damage and marked pathological changes). Levels of circulating cytokines involved in inflammatory pathways were also assessed. The effect of GSNORi was compared to vehicle treated controls. The corticosteroid, prednisolone, was used as the positive control in this study and was administered daily at 3 mg/kg/day via oral dosing. Naïve mice (N=5) were also assessed as a normal tissue control.

[1] = tested on: cigarette smoke-induced COPD (BALF cells); experiment: Subchronic (11 day) cigarette smoke exposure COPD model; assay type: in vivo, female C57Bl/6 mice; settings: for effects compared to positive control roflumilast: roflumilast 5 mg/kg/day
Procedure: (§1) The efficacy of GSNOR inhibitors was assessed in a mouse model of chronic obstructive pulmonary disease (COPD) induced by short duration (4 days or 11 days) of exposure to cigarette smoke. Infiltration of inflammatory cells into the bronchoalveolar lavage fluid (BALF) and BALF levels of chemokines involved in inflammation and tissue turnover/repair were measured to assess the influences of GSNOR inhibitors on some of the early events associated with the initiation and progression of COPD.
Efficacy of GSNOR inhibitors against COPD was explored using acute (4 day) and subchronic (11 day) models of cigarette smoke-induced COPD in mice. […] In animal models, changes in lung pathology are only evident after extended (several months) duration of exposure to cigarette smoke, thus making chronic models prohibitive as effective screening tools. More recently, models exploring inflammatory responses after short duration (2 weeks or less) of smoke exposure in mice have been utilized as tools for screening efficacy and mechanisms of action of novel therapeutics against COPD. The key roles of inflammation in the initiation and progression of COPD, make these short duration models relevant for initial tests of efficacy of novel therapeutics.
Female C57Bl/6 mice (N=10 per group) were exposed to cigarette smoke generated from Marlboro 100 cigarettes without filters. Exposure times were 25 min. on study day 1, 35 min. on study day 2, and 45 min. on study days 3 to 11. GSNOR inhibitors were administered one hour prior to smoke exposure on each day. GSNOR inhibitors were dosed orally at 1 to 10 mg/kg/day for 11 days. The effects of GSNOR inhibitors were assessed by quantitating the number of total cells, and leukocytes differentials in the BALF via light microscopy at 24 h after the last exposure. The effect of GSNOR inhibitors were compared to vehicle treated controls and expressed as percent inhibition of the cigarette smoke induced increases in BALF cell numbers. Roflumilast was used as the positive control for the study and was dosed at 5 mg/kg/day. A group of naïve mice (N=10) was exposed to air and dosed with vehicle as a negative control for the study.

chronic DSS-induced IBD = experiment: Chronic treatment model of DSS-induced IBD; assay type: in vivo, male C57Bl/6 mice; settings: oral 10 mg/kg/day for up to 14 consecutive days, treatment regimen; p<0.05
From the text: Acute and chronic models of dextran sodium sulfate (DSS)-induced IBD in mice were used to explore efficacy of GSNORi against this disease. Acute and chronic DSS-induced IBD are widely used and well characterized models that induce pathological changes in the colon similar to those observed in the human disease. In these models and in human disease, epithelial cells within the crypts of the colon are disrupted, leading to dysfunction of the epithelial barrier and the ensuing tissue inflammation, edema, and ulceration. GSNORi therapy may benefit IBD by restoring s-nitrosoglutathione (GSNO) levels, and thus prevent or reverse the epithelial barrier dysfunction.
Experimental IBD was induced by administration of DSS in the drinking water of male C57Bl/6 mice (N=10 to 12 mice per group) for 6 consecutive days. GSNORi was dosed orally at doses of 10 mg/kg/day for 14 days starting one day after cessation of DSS exposure. Efficacy of GSNORi was assessed in a blinded fashion via endoscopy after 7 days and 14 days of GSNORi dosing and via histopathology after 14 days of GSNORi dosing using a five point scale ranging from a score=0 (normal tissue) through a score=4 (ulcerative tissue damage and marked pathological changes). Levels of circulating cytokines involved in inflammatory pathways were also assessed. […] Naïve mice (N=5) were also assessed as a normal tissue control.

[2] = tested on: cigarette smoke-induced COPD (BALF cells and chemokines); experiment: Acute (4 day) cigarette smoke exposure COPD model; assay type: in vivo, female C57Bl/6 mice; settings: oral 10 mg/kg/day for 7 days
Procedure: as §1
Efficacy of GSNOR inhibitors against COPD was explored using acute (4 day) and subchronic (11 day) models of cigarette smoke-induced COPD in mice. […] In animal models, changes in lung pathology are only evident after extended (several months) duration of exposure to cigarette smoke, thus making chronic models prohibitive as effective screening tools. […]
Female C57Bl/6 mice (N=8 per group) were exposed to cigarette smoke using a whole body exposure chamber. […] The effects of GSNOR inhibitors were assessed by quantitating the numbers of total cells, leukocytes, and leukocytes differentials in the BALF via light microscopy and the levels of BALF chemokines via ELISA at approximately 24 h after the last smoke exposure. […]

[3] = oral 10 mg/kg/day for 10 consecutive days, prophylactic regimen

SMILES: O=C(O)c1ccc(-c2ccc3cc(O)ccc3n2)c(Cl)c1 [Compound 8, 3-chloro-4-(6-hydroxyquinolin-2-yl)benzoic acid]
- decrease of percent of mice with severe colon injury scores via endoscopy, of vehicle control (acute DSS-induced IBD; [3]): 44%
- decrease of percent of mice with severe colon injury scores via histopathology, of vehicle control (acute DSS-induced IBD; [3]): 26%
- dose response of effect ([1]; oral 1, 5, or 10 mg/kg/day): no dose response
- effects compared to positive control roflumilast [1]: comparable to those of roflumilast

SMILES: O=C(O)c1ccc(-c2ccc3cc(O)ccc3n2)c(F)c1 [Compound 13, 3-fluoro-4-(6-hydroxyquinolin-2-yl)benzoic acid]
- decrease of percent of mice with severe colon injury scores via endoscopy, of vehicle control (chronic DSS-induced IBD): 52%
- decrease of percent of mice with severe colon injury scores via histopathology, of vehicle control (chronic DSS-induced IBD): 53%
- effects compared to positive control roflumilast [1]: comparable to those of roflumilast

SMILES: Cc1cc(C(=O)O)ccc1-c1ccc2cc(O)ccc2n1 [Compound 27, 4-(6-hydroxyquinolin-2-yl)-3-methylbenzoic acid]
- effects compared to positive control roflumilast [1]: comparable to those of roflumilast

SMILES: O=C(O)c1ccc(-c2ccc3cc(O)ccc3n2)cc1 [Compound 3, 4-(6-hydroxyquinolin-2-yl)benzoic acid]
- circulating inflammatory cytokines (acute DSS-induced IBD; oral 0.1, 1, or 10 mg/kg/day for 10 days, prophylactic regimen): restored circulating inflammatory cytokines towards levels observed in untreated naïve mice
- effects compared to positive control prednisolone (acute DSS-induced IBD; prednisolone 3 mg/kg/day oral): comparable to or greater than those observed for prednisolone
- BALF chemokines [2]: restored BALF chemokines towards levels observed in naïve mice
- effects compared to positive control roflumilast [2]: comparable to or greater than those observed for roflumilast

— patent US9856219B2, “Substituted quinoline compounds as S-nitrosoglutathione reductase inhibitors” (Nivalis Therapeutics, Inc., priority 2010, dated 2018)
